Where two headings read alike, the source gives them in different places.
How the values were obtained:
[1] = Pharmacokinetic studies: plasma levels of PMM, TMM and TRIMM by gas liquid chromatography; assay type: in vivo, man; settings: for Detection as PMM metabolite in plasma / Quantity of metabolite in plasma: after i.v. PMM; for Detection as PMM metabolite in plasma: patients studied; for half-life: intravenous; for Plasma concentration relative to parent drug: 2 h after the end of the infusion
Source text: (§1) Br. J. Cancer (1983), 47, 027-033 Pentamethylmelamine (PMM): Phase I clinical and pharmacokinetic studies J.R.F. Muindi*, D.R. Newellt, I.E. Smith* & K.R. Harrapt *Division of Medicine, Institute of Cancer Research and Royal Marsden Hospital, and the tDepartment of Biochemical Pharmacology, Institute of Cancer Research, Sutton, Surrey. […] PMM has been administered as an intravenous infusion to 17 patients in a Phase I clinical trial. […] In the present study the results of the Phase I clinical evaluation of PMM at the Royal Marsden Hospital are reported. In addition to the clinical assessment of patients, pharmacokinetic studies were also performed. […] (Broggini et al., 1981; Morimoto et al., 1980; Ames et al., 1979; Casper et al., 1981; Idhe et al., 1981; Benvenuto et al., 1981; Rutty et al., 1982). […] The mechanism of action of N-methylolmelamines is, however, still uncertain. To ascertain the rate and extent of PMM metabolism in man, plasma levels of the parent drug and the first two products of oxidative N- demethylation i.e. N2,N2,N4,N6-tetramethyl- melamine (TMM) and N2,N4,N6-trimethylmelamine (TRIMM) were measured (Figure 2). […] Materials and methods Patient selection The patients entered in the PMM Phase I clinical study were all under the care of the Royal Marsden Hospital. […] Additional criteria required for eligibility to enter into the study included: WBC and platelet count > 3000 uM I-' and > 100,000 pM 11 respectively; blood urea and serum creatinine < 8 mM ,M I1- and < 106 pM 1 respectively. None of the patients had received cancer chemotherapy or radiotherapy during the 3-week period preceding their entry into the study. […] The treatment protocol was approved by the Ethical Committee of the Royal Marsden Hospital and informed consent was obtained from all patients prior to entry into the study. […] It was supplied by Prof. W.C.J. Ross of the Chester Beatty Research Institute, London, as a white crystalline powder. PMM (2mg ml-') was infused intravenously as a 2% ethanol 5% dextrose solution after micropore (0.22 pm) filtration. All formulated PMM infusions were used within 24h of preparation, as a sterility precaution. PMM was initially given at a dose of […] and the dose escalated to 1300mgm-2 according to a modified Fibonacci scheme (Table II). At higher PMM doses, requiring large infusion volumes, the infusion time was extended from 1 to 4 h. No dose escalation was TRIMM CH3 Nc"N H 11 H Ii N N H CH3 HCHO 1. carried out in the same patient.

[2] = parameters: method as in Cumber & Ross, 1977; settings: compared with N2,N4,N6-trimethyl-N2,N4,N6-trimethylolmelamine; ref Cumber & Ross, 1977; cited from earlier work
[3] = parameters: method as in Rutty et al., 1982; settings: patients of this trial, not detectable; ref Rutty et al., 1982; cited from earlier work
[4] = parameters: method as in Rutty et al., 1982; settings: rats; ref Rutty et al., 1982; cited from earlier work
[5] = system: patients with malignant tumours; assay: Phase I clinical evaluation of toxicity of PMM given as intravenous infusion; assay type: in vivo, man; parameters: key to Nausea/vomiting Intensity: Mild: Vomiting once or twice during the infusion and requiring no anti- emetics was classified as mild; Moderate: vomiting that persisted up to 6 h after infusion and requiring a maximum administration of two courses of anti- emetics was regarded as moderate; Severe: Vomiting was classified as severe if it continued up to 24 h after PMM infusion and/or could only be controlled partially by repeated doses of anti-emetics; settings: for Nausea/vomiting Frequency: per courses
Source text: as §1

[6] = parameters: method as in Rutty et al., 1982; settings: mice; ref Rutty et al., 1982; cited from earlier work
[7] = parameters: method as in Ames et al. (1979); settings: rabbits, independent of the route (i.v. and oral); ref Ames et al. (1979); cited from earlier work
[8] = system: malignant tumours; assay: Tumour response in the Phase I trial; assay type: in vivo, man
Source text: Br. J. Cancer (1983), 47, 027-033 Pentamethylmelamine (PMM): Phase I clinical and pharmacokinetic studies J.R.F. Muindi*, D.R. Newellt, I.E. Smith* & K.R. Harrapt *Division of Medicine, Institute of Cancer Research and Royal Marsden Hospital, and the tDepartment of Biochemical Pharmacology, Institute of Cancer Research, Sutton, Surrey. […] PMM has been administered as an intravenous infusion to 17 patients in a Phase I clinical trial. […] In the present study the results of the Phase I clinical evaluation of PMM at the Royal Marsden Hospital are reported. In addition to the clinical assessment of patients, pharmacokinetic studies were also performed. […] (Broggini et al., 1981; Morimoto et al., 1980; Ames et al., 1979; Casper et al., 1981; Idhe et al., 1981; Benvenuto et al., 1981; Rutty et al., 1982). […] The mechanism of action of N-methylolmelamines is, however, still uncertain. To ascertain the rate and extent of PMM metabolism in man, plasma levels of the parent drug and the first two products of oxidative N- demethylation i.e. N2,N2,N4,N6-tetramethyl- melamine (TMM) and N2,N4,N6-trimethylmelamine (TRIMM) were measured (Figure 2). […] Materials and methods Patient selection The patients entered in the PMM Phase I clinical study were all under the care of the Royal Marsden Hospital. […]

[9] = system: experimental tumour test systems; parameters: method as in earlier work; settings: a number of experimental tumour test systems, ref Cumber & Ross, 1977, Connors et al., Goldin et al., 1981; cited from earlier work
[10] = system: patients; settings: cited from earlier work
[11] = oral HMM 120-300 mg m-2, n = 9 (9/11 patients), mean + SEM; ref D'Incalci et al. (1978); cited from earlier work
[12] = patient eight, PMM dose 300 mg m-2 i.v., hepatic function abnormal
[13] = patient five, PMM dose 200 mg m-2 i.v., hepatic function abnormal
[14] = patient four, PMM dose 200 mg m-2 i.v., hepatic function normal
[15] = patient one, PMM dose 300 mg m-2 i.v., hepatic function normal
[16] = patient seven, PMM dose 500 mg m-2 i.v., hepatic function normal
[17] = patient six, PMM dose 100 mg m-2 i.v., hepatic function normal
[18] = patient three, PMM dose 500 mg m-2 i.v., hepatic function abnormal
[19] = patient two, PMM dose 100 mg m-2 i.v., hepatic function normal
[20] = patients with normal liver function

For CNc1nc(N)nc(NC)n1 [N2,N4-dimethylmelamine], the “Detection as PMM metabolite in plasma” value [1] was “observed”.
In the case of CNc1nc(N(C)C)nc(N(C)C)n1 [PMM, Pentamethylmelamine], the Chemical stability [2] is given as “greater chemical stability”, the “PMM metabolites capable of releasing formaldehyde in plasma” value [3] is given as less than 50 µM and the “PMM metabolites capable of releasing formaldehyde in plasma” value [4] is given as 211 yM. For the same molecule, the “Nausea/vomiting Intensity” value ([5]; 100 mg m-2 i.v. infusion) was “Mild”, the “Nausea/vomiting Frequency” value ([5]; 100 mg m-2 i.v. infusion, 3 patients) was 0/7 and the “Nausea/vomiting Frequency” value ([5]; 200 mg m-2 i.v. infusion, 3 patients) was 1/7. The “Nausea/vomiting Intensity” value ([5]; 300 mg m-2 i.v. infusion) was “Moderate (vomiting that persisted up to 6 h after infusion and requiring a maximum administration of two courses of anti- emetics was regarded as moderate)”, the “Nausea/vomiting Frequency” value ([5]; 300 mg m-2 i.v. infusion, 3 patients) was 2/5 and the “Patients with nausea and vomiting” value ([5]; 500 mg m-2 and above) was “all patients”. For the same molecule, the “Nausea/vomiting Frequency” value ([5]; 500 mg m-2 i.v. infusion, 3 patients) was 8/8, the “Nausea/vomiting Intensity” value ([5]; 800 mg m-2 i.v. infusion) was “Severe (Vomiting was classified as severe if it continued up to 24 h after PMM infusion and/or could only be controlled partially by repeated doses of anti-emetics)” and the “Nausea/vomiting Frequency” value ([5]; 800 mg m-2 i.v. infusion, 3 patients) was 7/7. The “Duration of nausea and vomiting” value ([5]; 1300 mg m-2 i.v. infusion) was greater than 24 h, the “Nausea/vomiting Frequency” value ([5]; 1300 mg m-2 i.v. infusion, 2 patients) was 4/4 and the “Severity of nausea and vomiting” value ([5]; 1300 mg m-2 i.v. infusion, poorly controlled by anti-emetics) was “severe”. For the same molecule, the Haematological toxicity ([5]; 100-1300 mg m-2 i.v. infusion) was “not observed”, the Hepatic toxicity ([5]; 100-1300 mg m-2 i.v. infusion) was “not observed” and the Renal toxicity ([5]; 100-1300 mg m-2 i.v. infusion) was “not observed”. For the same molecule, the “Acute neurological side effects” value ([5]; doses below 500 mg m-2, not assessable at higher doses because of anti-emetics) was “no neurological side effects were observed”, the Dose-limiting toxicities ([5]; i.v. infusion 100-1300 mg m-2, 3 weekly) was “nausea and vomiting” and the “Pruritic erythematous maculopapular skin rashes” value ([5]; one patient at 200 mg m-2 (2nd course), one at 1300 mg m-2, other medications possibly responsible) was “Two patients”. For the same molecule, the “Correlation (r) of plasma levels at the end of the infusion with dose” value ([1]; 1 h infusion, 100-300 mg m-2, P = 0.005) was 0.94, the half-life ([1]; human, plasma, 100 mg m-2, patient six, 100 mg m-2, hepatic function normal, value + s.e., read-out: PMM plasma t1/2 (overall elimination phase)) was 54.1 min and the half-life ([1]; human, plasma, 200 mg m-2, patient five, 200 mg m-2, hepatic function abnormal, value + s.e., read-out: PMM plasma t1/2 (overall elimination phase)) was 135 min. The half-life ([1]; human, plasma, 300 mg m-2, patient eight, 300 mg m-2, hepatic function abnormal, value + s.e., read-out: PMM plasma t1/2 (overall elimination phase)) was 153 min, the half-life ([1]; human, plasma, 300 mg m-2, patient one, 300 mg m-2, hepatic function normal, value + s.e., read-out: PMM plasma t1/2 (overall elimination phase)) was 72.8 min and the half-life ([1]; human, plasma, 500 mg m-2, patient seven, 500 mg m-2, hepatic function normal, value + s.e., read-out: PMM plasma t1/2 (overall elimination phase)) was 68.6 min. The half-life ([1]; human, plasma, 500 mg m-2, patient three, 500 mg m-2, hepatic function abnormal, value + s.e., read-out: PMM plasma t1/2 (overall elimination phase)) was 127 min, the half-life ([1]; human, plasma, patients with hepatic disease and abnormal liver function tests, mean + SEM, n = 3, P = 0.002 vs normal, read-out: PMM t1/2, group mean) was 138 min and the half-life ([1]; human, plasma, patients with normal liver function, mean + SEM, n = 3, read-out: PMM t1/2, group mean) was 65 min. The AUC(0-t) ([1]; human, plasma, iv, i.v. PMM 100-300 mg m-2, n = 6, mean + SEM, read-out: PMM AUC 0-12h (converted)) was 72.3 µM·h, the “Area under the plasma conc. v. time curve” value (“Area” below) [1, 12] was 6019 IM x min and the “Area” value [1, 13] was 7175 IM x min. For the same molecule, the “PMM pharmacokinetics in the disposition phase (order)” value ([1]; patient four, 200 mg m-2, hepatic function normal) was “not first-order”, the “Area” value [1, 14] was 1694 IM x min and the “Area” value [1, 15] was 6232 IM x min. The “Area” value [1, 16] was 3940 IM x min, the “Area” value [1, 17] was 734 IM x min and the “Area” value [1, 18] was 7179 IM x min. The “PMM pharmacokinetics in the disposition phase (order)” value ([1]; patient two, 100 mg m-2, hepatic function normal) was “not first-order”, the “Area” value [1, 19] was 317 IM x min and the PMM metabolites capable of releasing formaldehyde in plasma [6] was 563 to 773 µM. The “Urinary excretion of drug-derived material” value [7] was 75-85 % dose admin, the Minor response ([8]; 500 mg m-2, patient with squamous cell carcinoma of bronchus) was “One minor response” and the “Complete or partial responses” value ([8]; 17 patients, 100-1300 mg m-2) was “No complete or partial responses”. For the same molecule, the “Activity relative to HMM” value [9] was “equivalent activity”, the Haematological toxicity ([10]; 1.2 g/m2/day x 10, ref Goldberg et al. (1980)) was “reproducibly induced haematological toxicity” and the “Partial response among all patients who have received PMM” value ([10]; of 173 patients, ref Casper et al., 1981) was 1. For the same molecule, the “Minor responses among all patients who have received PMM” value ([10]; of 173 patients, ref Van Echo et al., 1980, Ajani et al., 1982 and the present study) was 7.
For CN(C)c1nc(N(C)C)nc(N(C)C)n1 [HMM, hexamethylmelamine], the “HMM AUC 0-12h” value [11] is given as 763 +163 iMxmin.
For CNc1nc(NC)nc(N(C)C)n1 [TMM, N2,N2,N4,N6-tetramethylmelamine], the “Detection as PMM metabolite in plasma” value [1] was “detected”, the “Area” value [1, 12] was 2121 IM x min and the “Area” value [1, 13] was 1804 IM x min. For the same molecule, the “Area” value [1, 14] was 397 IM x min, the “Area” value [1, 15] was 3697 IM x min and the “Area” value [1, 16] was 2693 IM x min. The “Area” value [1, 17] was 204 IM x min, the “Area” value [1, 18] was 6206 IM x min and the “Area” value [1, 19] was 151 IM x min. For the same molecule, the “Plasma concentration relative to parent drug” value [1, 20] was “greater concentrations than the parent drug”.
For CNc1nc(NC)nc(NC)n1 [TRIMM, N2,N4,N6-trimethylmelamine], the “Detection as PMM metabolite in plasma” value [1] was “detected”, the “Area” value [1, 12] was 627 IM x min and the “Area” value [1, 13] was 1438 IM x min. For the same molecule, the “Area” value [1, 14] was 1070 IM x min, the “Area” value [1, 15] was 4091 IM x min and the “Area” value [1, 16] was 3710 IM x min. For the same molecule, the “Area” value [1, 17] was 573 IM x min, the “Area” value [1, 18] was 7995 IM x min and the “Area” value [1, 19] was 189 IM x min. The “Plasma concentration relative to parent drug” value [1, 20] was “greater concentrations than the parent drug”.
For CN(C)c1nc(N)nc(N(C)C)n1 [N2,N2,N4,N4-tetramethylmelamine], the “Quantity of metabolite in plasma” value [1] was “minor quantities”.
For CNc1nc(N)nc(N(C)C)n1 [N2,N2,N4-trimethylmelamine], the “Quantity of metabolite in plasma” value [1] was “minor quantities”.

From article PMC2011259, “Pentamethylmelamine (PMM): Phase I clinical and pharmacokinetic studies” (British Journal of Cancer, 1983)
